# Experimental data reported in Sander's compilation of Henry's law constants (doi:10.1021/j100876a049).
# Assay: Henry solubility constant Hcp at 298.15 K (mol/(m3 Pa))
# Details: reference: McAuliffe (1966)
row,SMILES,Henry solubility constant Hcp
1,C=CCC [1-butene],4e-05
2,C#CCC [1-butyne],0.00054
3,CCCC [butane],1.1e-05
4,C=C [ethene],4.7e-05
5,C=CC [propene],4.8e-05
6,C#CC [propyne],0.00092

# Results, then the compound that gave them:
row,Henry solubility constant Hcp,SMILES
1,8.5e-06,CC(C)C [2-methylpropane]
2,4.8e-05,C=C(C)C [2-methylpropene]
3,1.9e-05,C=CC(C)C [3-methyl-1-butene]
4,4.7e-06,CC(C)(C)C [dimethylpropane]
